pIC50: −log10 of the molar value. Several values for one entry are separate records, joined by “and”; a condition that tells them apart may be missing. Equal entries are not always repeated. Each block holds one molecule with its values, some of them ahead of it.
System: 521955-158-R6-J3-PDC complex spheroid growth, % test/control
Assay: Anticancer human tumor 521955-158-R6-J3-PDC patient-derived pancreatic carcinoma cell line growth inhibition [Asc]
Conditions: for viability, T/C: stronger effect = lower value
Summary of the method: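 Complex spheroids combining tumor cells with HUVEC endothelial cells and human MSCs, at 37 degrees C, 5% CO2; agents tested alone or combined, half-log dilutions from at or near clinical Cmax, or 10 microM if Cmax unknown.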
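Note: spheroids exposed to compounds for 7 days.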
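Throughout, for viability, T/C: 100% = DMSO vehicle control wells.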

SMILES: C#Cc1c(F)ccc2cc(O)cc(-c3ncc4c(N5CC6CCC(C5)N6)nc(OCC56CCCN5CC(F)C6)nc4c3F)c12 (stereo not given)
- viability, T/C (compound 0.0316 µM): 60.7% and 66.5% and 60.8%
- viability, T/C (compound 0.1 µM): 52.9% and 52% and 53.5%
- viability, T/C (compound 0.316 µM): 46% and 58.3% and 47.4%
- viability, T/C (compound 1 µM): 48% and 45.1% and 47%
- viability, T/C (compound 3.16 µM): 33.9% and 35.5% and 44.9%
- viability, T/C (compound 10 µM): 18.6% and 32.2%
- pIC50 (curve of compound): 6.47 and 6.34 and 6.41

SMILES: CCN1CCN(Cc2ccc(Nc3ncc(F)c(-c4cc(F)c5nc(C)n(C(C)C)c5c4)n3)nc2)CC1
- viability, T/C (compound 0.00316 µM): 88.9% and 113% and 94.9%
- viability, T/C (compound 0.01 µM): 105% and 115% and 102%
- viability, T/C (compound 0.0316 µM): 77.9% and 87.5% and 87.9%
- viability, T/C (compound 0.1 µM): 86.7% and 105% and 94.8%
- viability, T/C (compound 0.316 µM): 85.5% and 74.2% and 83.4%
- viability, T/C (compound 1 µM): 87.4% and 96.5% and 91.6%
- pIC50 (curve of compound): < 6.00

SMILES: Cn1ncnc1[C@H]1c2n[nH]c(=O)c3cc(F)cc(c23)N[C@@H]1c1ccc(F)cc1
- viability, T/C (compound 0.000316 µM): 100% and 86% and 85.9%
- viability, T/C (compound 0.001 µM): 117% and 105% and 93.7%
- viability, T/C (compound 0.00316 µM): 108% and 97.1% and 83.8%
- viability, T/C (compound 0.01 µM): 106% and 116% and 114%
- viability, T/C (compound 0.0316 µM): 97.9% and 96.4% and 84.3%
- viability, T/C (compound 0.1 µM): 95.5% and 85.7% and 96.4%
- pIC50 (curve of compound): < 7.00

SMILES: NC(=O)C(=Cn1cnc(-c2cc(C(F)(F)F)cc(C(F)(F)F)c2)n1)c1cncnc1 + CCN1C(C(=O)NC23CCC(C(=O)O)(CC2)CC3)C(c2cccc(Cl)c2F)C2(C(=O)Nc3cc(Cl)ccc32)C12CCCCC2
- pIC50 (curve of first compound, second compound 0.00949 µM): < 6.52
- pIC50 (curve of first compound, second compound 0.03 µM): < 6.52
- pIC50 (curve of first compound, second compound 0.0949 µM): < 6.52
- pIC50 (curve of first compound, second compound 0.3 µM): < 6.52
- pIC50 (curve of first compound, second compound 0.949 µM): < 6.52
- pIC50 (curve of first compound, second compound 3 µM): < 6.52
- viability, T/C (second compound 0.00949 µM, first compound 0.000949 µM): 99.6%
- viability, T/C (second compound 0.00949 µM, first compound 0.003 µM): 86.8%
- viability, T/C (second compound 0.00949 µM, first compound 0.00949 µM): 77.3%
- viability, T/C (second compound 0.00949 µM, first compound 0.03 µM): 99%
- viability, T/C (second compound 0.00949 µM, first compound 0.0949 µM): 82.9%
- viability, T/C (second compound 0.00949 µM, first compound 0.3 µM): 93.2%
- viability, T/C (second compound 0.03 µM, first compound 0.000949 µM): 93.7%
- viability, T/C (second compound 0.03 µM, first compound 0.003 µM): 83.7%
- viability, T/C (second compound 0.03 µM, first compound 0.00949 µM): 69.6%
- viability, T/C (second compound 0.03 µM, first compound 0.03 µM): 86%
- viability, T/C (second compound 0.03 µM, first compound 0.0949 µM): 103%
- viability, T/C (second compound 0.03 µM, first compound 0.3 µM): 102%
- viability, T/C (second compound 0.0949 µM, first compound 0.000949 µM): 88.8%
- viability, T/C (second compound 0.0949 µM, first compound 0.003 µM): 87.3%
- viability, T/C (second compound 0.0949 µM, first compound 0.00949 µM): 78.1%
- viability, T/C (second compound 0.0949 µM, first compound 0.03 µM): 85.1%
- viability, T/C (second compound 0.0949 µM, first compound 0.0949 µM): 98.8%
- viability, T/C (second compound 0.0949 µM, first compound 0.3 µM): 113%
- viability, T/C (second compound 0.3 µM, first compound 0.000949 µM): 88.7%
- viability, T/C (second compound 0.3 µM, first compound 0.003 µM): 76.9%
- viability, T/C (second compound 0.3 µM, first compound 0.00949 µM): 85.8%
- viability, T/C (second compound 0.3 µM, first compound 0.03 µM): 82.2%
- viability, T/C (second compound 0.3 µM, first compound 0.0949 µM): 117%
- viability, T/C (second compound 0.3 µM, first compound 0.3 µM): 107%
- viability, T/C (second compound 0.949 µM, first compound 0.000949 µM): 94%
- viability, T/C (second compound 0.949 µM, first compound 0.003 µM): 78.3%
- viability, T/C (second compound 0.949 µM, first compound 0.00949 µM): 95.1%
- viability, T/C (second compound 0.949 µM, first compound 0.03 µM): 78.7%
- viability, T/C (second compound 0.949 µM, first compound 0.0949 µM): 105%
- viability, T/C (second compound 0.949 µM, first compound 0.3 µM): 98.1%
- viability, T/C (second compound 3 µM, first compound 0.000949 µM): 87.2%
- viability, T/C (second compound 3 µM, first compound 0.003 µM): 97.7%
- viability, T/C (second compound 3 µM, first compound 0.00949 µM): 69.6%
- viability, T/C (second compound 3 µM, first compound 0.03 µM): 75.7%
- viability, T/C (second compound 3 µM, first compound 0.0949 µM): 99.8%
- viability, T/C (second compound 3 µM, first compound 0.3 µM): 84.4%

SMILES: CCN1C(C(=O)NC23CCC(C(=O)O)(CC2)CC3)C(c2cccc(Cl)c2F)C2(C(=O)Nc3cc(Cl)ccc32)C12CCCCC2 (stereo not given)
- viability, T/C (compound 0.3 µM): 109% [middle of 9 runs]
- pIC50 (compound alone, run of 11/07/2022): < 5.52
- pIC50 (curve of compound): < 5.52

The next lines start with results.

- pIC50 (curve of compound): 6.23 and 6.56 and 6.75
SMILES: COc1c(OCCCN2CCOCC2)ccc2c3n(c(=NC(=O)c4cnc(N)nc4)nc12)CCN3
- viability, T/C (compound 0.00316 µM): 83.2% and 98.8% and 91.5%
- viability, T/C (compound 0.01 µM): 97.2% and 78.8% and 72.1%
- viability, T/C (compound 0.0316 µM): 76.5% and 75.6% and 63.8%
- viability, T/C (compound 0.1 µM): 62.5% and 81.4% and 64.8%
- viability, T/C (compound 0.316 µM): 41.9% and 61.3% and 48.6%
- viability, T/C (compound 1 µM): 34.7% and 40% and 32.8%

- pIC50 (curve of first compound, second compound 0.0316 µM): 6.65
- pIC50 (curve of first compound, second compound 0.1 µM): 7.07
- pIC50 (curve of first compound, second compound 0.316 µM): > 8.50
- pIC50 (curve of first compound, second compound 1 µM): > 8.50
- pIC50 (curve of first compound, second compound 3.16 µM): > 8.50
- pIC50 (curve of first compound, second compound 10 µM): > 8.50
SMILES: COc1c(OCCCN2CCOCC2)ccc2c3n(c(=NC(=O)c4cnc(N)nc4)nc12)CCN3 + Cc1c(S(C)(=O)=O)c(-c2cc(F)cc(N3CCN(c4ccc(NS(=O)(=O)c5ccc(NC(CCN6CCC(C(=O)OCCCP(=O)(O)O)CC6)CSc6ccccc6)c(S(=O)(=O)C(F)(F)F)c5)cc4)CC3)c2)c(-c2ccc(Cl)cc2)n1C(C)C
- viability, T/C (second compound 0.0316 µM, first compound 0.00316 µM): 87.5%
- viability, T/C (second compound 0.0316 µM, first compound 0.01 µM): 84.8%
- viability, T/C (second compound 0.0316 µM, first compound 0.0316 µM): 55.2%
- viability, T/C (second compound 0.0316 µM, first compound 0.1 µM): 70.2%
- viability, T/C (second compound 0.0316 µM, first compound 0.316 µM): 46.7%
- viability, T/C (second compound 0.0316 µM, first compound 1 µM): 27.4%
- viability, T/C (second compound 0.1 µM, first compound 0.00316 µM): 82.7%
- viability, T/C (second compound 0.1 µM, first compound 0.01 µM): 61%
- viability, T/C (second compound 0.1 µM, first compound 0.0316 µM): 61.6%
- viability, T/C (second compound 0.1 µM, first compound 0.1 µM): 53.4%
- viability, T/C (second compound 0.1 µM, first compound 0.316 µM): 34%
- viability, T/C (second compound 0.1 µM, first compound 1 µM): 17.3%
- viability, T/C (second compound 0.316 µM, first compound 0.00316 µM): 42%
- viability, T/C (second compound 0.316 µM, first compound 0.01 µM): 38.9%
- viability, T/C (second compound 0.316 µM, first compound 0.0316 µM): 39%
- viability, T/C (second compound 0.316 µM, first compound 0.1 µM): 30.5%
- viability, T/C (second compound 0.316 µM, first compound 0.316 µM): 28%
- viability, T/C (second compound 0.316 µM, first compound 1 µM): 13%
- viability, T/C (second compound 1 µM, first compound 0.00316 µM): 33.9%
- viability, T/C (second compound 1 µM, first compound 0.01 µM): 36.3%
- viability, T/C (second compound 1 µM, first compound 0.0316 µM): 33.5%
- viability, T/C (second compound 1 µM, first compound 0.1 µM): 20.5%
- viability, T/C (second compound 1 µM, first compound 0.316 µM): 15.8%
- viability, T/C (second compound 1 µM, first compound 1 µM): 6.07%
- viability, T/C (second compound 3.16 µM, first compound 0.00316 µM): 15.3%
- viability, T/C (second compound 3.16 µM, first compound 0.01 µM): 18.2%
- viability, T/C (second compound 3.16 µM, first compound 0.0316 µM): 16.9%
- viability, T/C (second compound 3.16 µM, first compound 0.1 µM): 11.9%
- viability, T/C (second compound 3.16 µM, first compound 0.316 µM): 4.31%
- viability, T/C (second compound 3.16 µM, first compound 1 µM): 2.03%
- viability, T/C (second compound 10 µM, first compound 0.00316 µM): 17.6%
- viability, T/C (second compound 10 µM, first compound 0.01 µM): 14.4%
- viability, T/C (second compound 10 µM, first compound 0.0316 µM): 8.58%
- viability, T/C (second compound 10 µM, first compound 0.1 µM): 7.73%
- viability, T/C (second compound 10 µM, first compound 0.316 µM): 2.64%
- viability, T/C (second compound 10 µM, first compound 1 µM): 1.68%
